Test results as given in article PMC6888386, “Identification of Novel 1,3,5-Triphenylbenzene Derivative Compounds as Inhibitors of Hen Lysozyme Amyloid Fibril Formation” (International Journal of Molecular Sciences, 2019).

How the values were obtained:
[1] = tested on: SH-SY5Y human neuroblastoma cells; experiment: MTT reduction test with HEWL aggregates; format: cell-based; conditions: for Rescue of cell viability (MTT reduction): 2 µM HEWL aggregates formed in the presence of 0.32 µM compound
Experimental: (§1) We then assessed the cytotoxicity of HEWL aggregates, formed in the absence or presence of compounds 1–6, according to the aggregation protocol described for the ThT experiments. HEWL aggregates were collected by centrifugation, dried under N2, dissolved in cell culture medium, and added to SH-SY5Y human neuroblastoma cells at a concentration of 2 µM (monomer equivalents). The ability of the resulting aggregates to cause cellular dysfunction was assessed by performing the MTT reduction inhibition assay, a widely used indicator of mitochondrial dysfunction. […] Very similar results were obtained by measuring the activity of caspase-3, a well-recognized apoptotic marker. A significant activation of caspase-3 (320 ± 12%, as compared to untreated cells) was observed following treatment for 24 h of SH-SY5Y cells with HEWL aggregates at 2 µM (Figure 7B).
(§2) Authenticated human neuroblastoma SH-SY5Y cells were purchased from American Type Culture Collection (ATCC) (Manassas, VA, USA) and they tested negative for mycoplasma contaminations. SH-SY5Y cells were cultured in Dulbecco’s modified Eagle’s medium (DMEM), F-12 Ham with 25 mM HEPES and NaHCO3 (1:1) supplemented with 10% fetal bovine serum (FBS), 1.0 mM glutamine and 1.0% penicillin and streptomycin solution. Cells were maintained in a 5.0% CO2 humidified atmosphere at 37 °C and grown until 80% confluence for a maximum of 20 passages.
HEWL samples pre-incubated for 48 h under aggregating conditions in the absence or presence of 0.32 µM compounds 1–6 were centrifuged and the pellets were dried under N2 to remove any compounds and DMSO, dissolved in cell culture medium at a final HEWL concentration of 2 μM (monomer equivalents), and added to SH-SY5Y cells seeded in 96-well plates for 24 h at 37 °C. The cell medium was then removed and the MTT solution (0.5 mg/mL in RPMI) was added to the cells for 4 h. The medium was then aspirated, and the formazan product was solubilized with cell lysis buffer (20% SDS, 50% N, N-dimethylformamide, pH 4.7) for 1 h, as previously described.

[2] = biological target: T1, hen egg white lysozyme (HEWL) (Gallus gallus, UniProt P00698); experiment: ThT fluorescence assay of HEWL amyloid fibril formation; format: biochemical; conditions: 48 h; for IC50: HEWL 2 mg/mL (140 µM), 50 mM glycine buffer pH 2.5, 57 °C, stirring 250 rpm, compound 0.03-2.6 µM, Figure 2, read-out: IC50 of prevention of HEWL amyloid fibril formation; for Relative efficacy as inhibitor in terms of IC50 value: HEWL 140 µM, pH 2.5, 57 °C
T1 construct: Hen egg white lysozyme (HEWL), thioflavin T (ThT), and Congo red (CR) were purchased from Sigma-Aldrich; purchased Sigma-Aldrich (St. Louis, MO, USA); host or cells: hen egg white (per the product name)
T1 sequence (P00698 19-147): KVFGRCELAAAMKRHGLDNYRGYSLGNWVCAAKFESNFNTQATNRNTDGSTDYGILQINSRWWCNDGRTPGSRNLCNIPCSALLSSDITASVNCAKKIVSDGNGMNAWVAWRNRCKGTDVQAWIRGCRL
Experimental: The inhibition potential of the six compounds was determined using the ThT fluorescence assay to measure the amount of amyloid aggregates after the addition of various concentrations of each compound ranging from 0.03 to 2.6 µM. Aggregation of HEWL was induced by incubating the protein for 48 h at a concentration of 2 mg/mL (140 µM) in 50 mM glycine buffer, pH 2.5, and 57 °C, while stirred gently by magnetic bars (rpm 250), in the absence or presence of 0.03–2.6 µM compounds 1–6. […] The IC50 values of the compounds, corresponding to the concentration at which the inhibitory effect is half of the maximum effect, were determined (Figure 2).
(§3) HEWL concentration was determined by optical absorption at 280 nm (ε280 = 2.65 L·g^−1·cm^−1). HEWL was dissolved to a concentration of 2 mg/mL (140 µM) in 50 mM glycine buffer, pH 2.5, centrifuged for 10 min at 13,000 rpm, then incubated at 57 °C for the specified time lengths in the absence or presence of the indicated concentrations of compounds 1–6, under gentle stirring at 250 rpm by a Teflon magnetic bar.
A mother solution of 2.5 mM ThT was prepared in 10 mM sodium phosphate buffer, 150 mM NaCl, pH 7.0. It was then passed through a 0.45 μm filter paper and stored at 4 °C until it was placed at room temperature immediately before use. At regular time intervals, a 10 µL aliquot of protein solution was mixed with 990 μL of ThT solution in a 10 × 10 mm quartz cuvette and the fluorescence emission spectra were recorded at room temperature using a Cary Eclipse VARIAN fluorescence spectrophotometer (Varian, Mulgrave, Australia) and an excitation wavelength of 440 nm.

[3] = biological target: T1, hen egg white lysozyme (HEWL); experiment: Congo red (CR) assay of HEWL aggregation; format: biochemical; conditions: 0.32 µM compound; for CR absorbance relative to that measured in the absence of the compounds: HEWL pre-incubated 48 h under aggregating conditions
Experimental: Aliquots of the same samples used for ThT experiments were also used to carry out the CR assays. […] The higher CR absorbance obtained in the presence of HEWL is likely to originate from the presence of protein aggregates that scatter light, whereas the red shift of the peak from 490 to 520–540 nm indicates the presence of β-sheet containing aggregates.
as §3
Since compounds 1–6 have optical absorption spectra partially overlapped to that of CR, all protein samples were centrifuged at 10,000 rpm and the pellets resuspended in 50 mM glycine buffer, pH 2.5, at room temperature. A mother solution of 20 mM CR was prepared in 5 mM sodium phosphate buffer, 150 mM NaCl, pH 7.4, it was then filtered using a center-glass N4 filter and stored at 4 °C, until it was placed at room temperature immediately before use. At different time points during protein aggregation, a 60 μL aliquot of resuspended protein solution was mixed with 440 μL of CR solution. Optical absorption spectra were acquired after 2–3 min equilibration at 25 °C, using a Cecil 7200 UV–visible spectrophotometer (Aquarius, Cambridge, England) and a 1 cm path-length cell.

[4] = tested on: caspase-3 activity in SH-SY5Y cells; experiment: Caspase-3 activity after exposure to HEWL aggregates; format: cell-based, human; conditions: 24 h; for Prevention of the apoptotic response (caspase-3 activation) induced by aggregates: 2 µM HEWL aggregates formed in the presence of 0.32 µM compound
Experimental: as §1, §2
HEWL aggregates were formed in the absence or in the presence of 0.32 µM of compounds 1–6 as described in the previous section and then added to the cell culture medium of SH-SY5Y cells seeded on glass coverslips for 24 h at 2 μM (monomer equivalents). Caspase-3 activity was then analyzed by using FAM FLICA^TM caspases 3 & 7 solution (caspase 3 & 7 FLICA kit FAM-DEVDFMK, Immunochemistry Technologies, LLC, Bloomington, MN, USA). Cell fluorescence was analyzed by the TCS SP8 scanning confocal microscopy system (Leica Microsystems, Mannheim, Germany) equipped with an argon laser source, as previously reported. A series of 1.0 μm thick optical sections (1024 × 1024 pixels) was taken through the cell depth for each sample using a Leica Plan Apo 63 × oil immersion objective for fluorescence measurement at 488 nm. The confocal microscope was set at optimal acquisition conditions, e.g., pinhole diameters, detector gain, and laser powers. Settings were maintained constant for each analysis.

[5] = biological target: T1, hen egg white lysozyme (HEWL); experiment: Atomic force microscopy of HEWL aggregates; format: biochemical; conditions: 0.32 µM compound, HEWL 140 µM, pH 2.5, 57 °C, 48 h
Experimental: In order to define further the nature of the aggregated species, an analysis of their morphologies was carried out using AFM. HEWL was incubated under the same aggregation conditions used for the ThT, CR, and FTIR experiments, i.e., for 48 h at a concentration of 2 mg/mL (140 µM) in 50 mM glycine buffer, pH 2.5, and 57 °C, under stirring (250 rpm), in the absence or presence of 0.32 µM of compounds 1–6 and the resulting samples were examined by AFM (Figure 6). […] Rather, oligomeric and/or amorphous species were predominant.
HEWL samples pre-incubated for 48 h under aggregating conditions with or without 0.32 µM compounds 1–6 were diluted 100 times in filtered deionized water. A 5 µL aliquot of each of the resulting samples was placed on freshly cleaved mica at room temperature. After a few minutes, the mica was slowly washed with 100 μL of deionized water and dried with N2. Each image was acquired in a non-contact mode at a scan speed of 30 μm/s, loop filter of 3 Hz and force of 200 nN with a Dual Scope Probe Scanner (Veeco, model Auto probe, CP-Research, CA, USA) with an area of 5 × 5 μm^2. Conical shape silicon tips (MikroMasch NSC16) with a resonance frequency of 150 kHz and a nominal constant of 40 N/m were used. Fifteen images were collected for each compound.

[6] = biological target: T1, hen egg white lysozyme (HEWL); experiment: FTIR spectroscopy of HEWL aggregates; format: biochemical; conditions: 0.32 µM compound, 48 h, resuspended in D2O
Experimental: New samples of HEWL aggregates with or without compounds 1–6 at a concentration of 0.32 µM were prepared, under the same conditions as those used for ThT and CR experiments, centrifuged after 48 h to collect the aggregates, resuspended at high concentration in D2O and analyzed with FTIR spectroscopy, to determine the effects of the six compounds on the secondary structure of the HEWL aggregates. […] Another peak is present at ca. 1650 cm^−1 attributable to either unordered or α-helical secondary structure.
Samples were incubated for 48 h to promote aggregation as described above in the presence of 0.32 µM compounds 1–6, centrifuged at 13,000× g for 10 min and resuspended in D2O to a final volume of 72.8 μL, to reach a final concentration of 27.8 mg/mL. For each sample, 40 μL was deposited onto an Omni-Cell transmission cell with a 25 μm spacer (Specac, Orpington, UK), and Fourier-transform infrared (FTIR) spectra were recorded using a FTS-40 FTIR spectrometer (Bio-Rad, Hercules, CA, USA) purged with a continuous flow of dry air. Sixty-four interferograms were accumulated in each case at a spectral resolution of 1 cm^−1. The FTIR absorbance spectra were blank-subtracted and baseline-corrected to reveal the amide I region (1600–1700 cm^−1). […]

[7] = 24 h exposure, 2 µM (monomer equivalents), no compound
[8] = 24 h, 2 µM (monomer equivalents) HEWL aggregates formed in the presence of 0.32 µM compound

IC50 [2]	melting point	CR absorbance relative to that measured in the absence of the compounds [3]	Relative efficacy as inhibitor in terms of IC50 value [2]	Absorbance peak at 540 nm in CR difference spectra ([3]; 48 h, spectrum of CR alone subtracted)	Change of secondary structure of HEWL aggregates (amide I, loss of β-sheet) [6]	Molecule	MTT reduction relative to untreated cells [1, 7]	MTT reduction relative to untreated cells [1, 8]	Prevention of the apoptotic response (caspase-3 activation) induced by aggregates [4]	Activation of caspase-3 as compared to untreated cells ([4]; HEWL aggregates at 2 µM, no compound)	Rescue of cell viability (MTT reduction) ([1]; 24 h)	Morphology of HEWL aggregates by AFM [5]
400 nM	178 to 179 °C	lower				Cc1ccc(-c2cc(-c3ccc(C)cc3)cc(-c3ccc(C)cc3)c2)cc1 [Compound 4, 1,3,5-tris(4-methylphenyl)benzene]			significantly prevented		partial rescue	
200 nM	142 to 143 °C	lower				COc1ccc(-c2cc(-c3ccc(OC)cc3)cc(-c3ccc(OC)cc3)c2)cc1 [Compound 5, 1,3,5-tris(4-methoxyphenyl)benzene]		93.9 ± 2.9%	significantly prevented			a few short fibrillar assemblies along with oligomeric species
980 nM	237 to 239 °C	markedly higher	minimum effect	only a modest decrease		Oc1ccc(-c2cc(-c3ccc(O)cc3)cc(-c3ccc(O)cc3)c2)cc1 [Compound 6, 1,3,5-tris(4-hydroxyphenyl)benzene]			only a slight protective effect		partial rescue	a mixture of unbranched filamentous assemblies
50 nM	238 to 240 °C	lower	best inhibitor		most remarkable change	Fc1ccc(-c2cc(-c3ccc(F)cc3)cc(-c3ccc(F)cc3)c2)cc1 [Compound 2, 1,3,5-tris(4-fluorophenyl)benzene]		96.2 ± 3.2%	significantly prevented			

Further lines, the molecule ahead of its results:

Molecule	IC50 [2]	melting point	CR absorbance relative to that measured in the absence of the compounds [3]	Relative efficacy as inhibitor in terms of IC50 value [2]	Absorbance peak at 540 nm in CR difference spectra ([3]; 48 h, spectrum of CR alone subtracted)	Change of secondary structure of HEWL aggregates (amide I, loss of β-sheet) [6]	MTT reduction relative to untreated cells [1, 7]	MTT reduction relative to untreated cells [1, 8]	Prevention of the apoptotic response (caspase-3 activation) induced by aggregates [4]	Activation of caspase-3 as compared to untreated cells ([4]; HEWL aggregates at 2 µM, no compound)	Rescue of cell viability (MTT reduction) ([1]; 24 h)	Morphology of HEWL aggregates by AFM [5]
native HEWL: native hen egg white lysozyme							unaffected					
c1ccc(-c2cc(-c3ccccc3)cc(-c3ccccc3)c2)cc1 [Compound 1, 1,3,5-triphenylbenzene]	100 nM	171 to 173 °C	lower					92.7 ± 3.2%	significantly prevented			
HEWL aggregates: hen egg white lysozyme aggregates formed 48 h at pH 2.5, 57 °C in the absence of compounds							73.9 ± 2.1%			320 ± 12%		
O=[N+]([O-])c1ccc(-c2cc(-c3ccc([N+](=O)[O-])cc3)cc(-c3ccc([N+](=O)[O-])cc3)c2)cc1 [Compound 3, 1,3,5-tris(4-nitrophenyl)benzene]	190 nM	151 to 152 °C	lower						only a slight protective effect		partial rescue	
